Laboratory results taken from ChEMBL document CHEMBL1201862, “PubChem BioAssay data set” (2004).
Calls of active or inactive are those of the source.

Tests used:
H9c2 = assay: cells; assay type: functional, cell-based; settings: Rattus norvegicus, H9c2, Myocardium;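 note: confirmatory concentration-response retest of ultra-high-throughput screening hits for modulation of myocardial damage; cell death induced by hydrogen peroxide oxidative stress; compound pretreatment for 60 min then peroxide exposure for 2 h; potency is for protecting the cells against peroxide damage rather than for killing them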
[1] = growth suppression of PTEN-null colon cells, dose response, cell-based, HCT116 PTEN knockout (AID 1047); assay type: functional;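 note: HCT116 colon tumor cells with PTEN knocked out; cells exposed to compound for 60 hours before readout; potency for loss of cell viability measured by luminescence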
[2] = growth suppression of beta-catenin-knockout colon cells, dose response, cell-based, HCT116, human colon tumor (AID 1045); assay type: functional;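 note: HCT116 colon tumor cells with beta catenin knocked out; cells exposed to compound for 60 hours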
[3] = cytotoxicity in HEK-293T cells, dose response, cytotoxicity control for TCR NF-kB inhibitor project, luminescence, T-cell screen hits (AID 489026); assay type: functional, cell-based;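 note: cells exposed to compound about 14 hours before the viability readout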
[4] = biological target: T1, Polyadenylate-binding protein 1 (Homo sapiens, UniProt P11940); assay: PABP1 MLLE–PAM2 interaction inhibitors, dose response, miRNA deadenylation inhibitor project, biochemical, fluorescence polarization, Cy5-PAM2 peptide, secondary (AID 602260); assay type: functional; settings: read-out: IC50_Mean
[5] = biological target: T1, Polyadenylate-binding protein 1; assay: PABP1 MLLE–PAM2 binding inhibitor potency, dose response, biochemical, fluorescence polarization, FITC-PAM2 peptide (AID 602259); assay type: functional; settings: read-out: IC50_Mean
cells [6] = assay type: functional, cell-based
cells [7] = assay type: functional, cell-based; remark: listed apart in the source
BJ [8] = assay: cytotoxicity toward BJ-TERT fibroblasts, dose response, cell-based, RAS-independent, luminescence (AID 1933); assay type: functional; settings: Homo sapiens
BJ [9] = assay: cytotoxicity toward BJ-TERT-LT-ST fibroblasts, dose response, cell-based, RAS-independent, luminescence (AID 1935); assay type: functional; settings: Homo sapiens;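 note: BJ fibroblasts immortalized with TERT plus LT and ST oncogenes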
[10] = cytotoxicity toward DRD oncogenic fibroblasts, dose response, cell-based, non-viral oncogenic, luminescence (AID 1934); assay type: functional; settings: Homo sapiens
BJ [11] = assay: cells; assay type: functional, cell-based; settings: Homo sapiens
Protein RecA = biological target: T2, Protein RecA (Mycobacterium tuberculosis, UniProt P9WHJ3); assay: Fluorescence Cell-Free Homogeneous Dose Retest to Identify Inhibitors of RecA-Intein Splicing Activity. [Related pubchem assays (depositor defined):AID2097, AID2223, AID489010, AID492950]; assay type: functional
T2 sequence (P9WHJ3 whole entry): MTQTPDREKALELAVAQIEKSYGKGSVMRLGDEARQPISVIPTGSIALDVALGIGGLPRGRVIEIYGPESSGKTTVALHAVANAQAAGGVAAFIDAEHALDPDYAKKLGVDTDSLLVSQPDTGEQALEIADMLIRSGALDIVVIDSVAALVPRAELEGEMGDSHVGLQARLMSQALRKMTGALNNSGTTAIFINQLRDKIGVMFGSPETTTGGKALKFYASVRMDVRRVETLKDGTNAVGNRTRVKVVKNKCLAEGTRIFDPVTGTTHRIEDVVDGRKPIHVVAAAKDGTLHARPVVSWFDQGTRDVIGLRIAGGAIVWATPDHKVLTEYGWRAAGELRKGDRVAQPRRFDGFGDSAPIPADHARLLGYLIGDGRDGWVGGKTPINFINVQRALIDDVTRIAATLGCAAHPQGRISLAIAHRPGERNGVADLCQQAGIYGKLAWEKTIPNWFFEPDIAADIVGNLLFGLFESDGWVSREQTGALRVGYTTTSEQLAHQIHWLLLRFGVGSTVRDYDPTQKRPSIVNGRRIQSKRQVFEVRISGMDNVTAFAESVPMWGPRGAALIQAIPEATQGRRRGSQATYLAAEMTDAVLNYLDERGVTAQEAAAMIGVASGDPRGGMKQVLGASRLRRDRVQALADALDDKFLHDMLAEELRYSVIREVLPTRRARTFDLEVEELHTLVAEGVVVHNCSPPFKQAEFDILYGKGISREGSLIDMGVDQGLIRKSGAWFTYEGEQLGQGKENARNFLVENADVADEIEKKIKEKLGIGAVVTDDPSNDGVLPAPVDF

[12] = biological target: T3, Replicative DNA helicase DnaB (Mycobacterium tuberculosis, UniProt P9WMR3); assay: DnaB intein splicing inhibitors, dose response, biochemical, cell-free fluorescence (AID 449749); assay type: functional
T3 sequence (P9WMR3 whole entry): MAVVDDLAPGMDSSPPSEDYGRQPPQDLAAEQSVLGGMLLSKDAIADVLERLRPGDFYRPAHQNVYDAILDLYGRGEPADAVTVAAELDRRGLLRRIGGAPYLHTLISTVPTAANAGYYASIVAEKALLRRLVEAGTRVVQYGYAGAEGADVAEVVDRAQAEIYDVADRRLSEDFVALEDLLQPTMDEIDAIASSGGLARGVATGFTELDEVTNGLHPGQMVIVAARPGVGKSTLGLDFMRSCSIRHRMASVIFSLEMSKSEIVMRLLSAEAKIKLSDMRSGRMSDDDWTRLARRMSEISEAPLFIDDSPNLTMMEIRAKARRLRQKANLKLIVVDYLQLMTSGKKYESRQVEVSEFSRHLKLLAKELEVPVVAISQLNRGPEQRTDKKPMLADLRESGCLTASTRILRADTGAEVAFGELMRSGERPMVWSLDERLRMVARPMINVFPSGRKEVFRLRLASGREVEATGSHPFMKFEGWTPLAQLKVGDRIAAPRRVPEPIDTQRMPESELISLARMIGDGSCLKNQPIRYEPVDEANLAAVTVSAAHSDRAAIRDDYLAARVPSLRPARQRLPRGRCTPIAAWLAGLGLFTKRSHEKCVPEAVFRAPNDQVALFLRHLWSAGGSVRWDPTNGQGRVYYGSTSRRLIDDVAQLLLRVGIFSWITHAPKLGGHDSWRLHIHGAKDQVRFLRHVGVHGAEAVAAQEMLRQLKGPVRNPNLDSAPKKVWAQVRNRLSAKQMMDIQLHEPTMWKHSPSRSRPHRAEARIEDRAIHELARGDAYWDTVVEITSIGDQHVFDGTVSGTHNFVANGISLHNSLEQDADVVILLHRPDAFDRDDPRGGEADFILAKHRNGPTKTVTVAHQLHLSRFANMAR

Genome polyprotein = Genome polyprotein (dengue virus type 2, UniProt P29990); assay: Dengue-2 NS5 methyltransferase inhibitors, primary screen, biochemical, confirmation dose response (AID 588689); assay type: functional
[13] = P. falciparum Dd2 growth inhibitors, dose response, SYBR Green, cherry-picked samples (AID 1159567); assay type: functional, cell-based
[14] = biological target: Induced myeloid leukemia cell differentiation protein Mcl-1 (Homo sapiens, UniProt Q07820); assay type: functional
[15] = biological target: T4, Calpain-2 catalytic subunit (Sus scrofa, UniProt P43367); assay: pig calpain II inhibitor potency, dose response, biochemical, fluorogenic peptide substrate (AID 1420); assay type: functional
T4 sequence (P43367 whole entry): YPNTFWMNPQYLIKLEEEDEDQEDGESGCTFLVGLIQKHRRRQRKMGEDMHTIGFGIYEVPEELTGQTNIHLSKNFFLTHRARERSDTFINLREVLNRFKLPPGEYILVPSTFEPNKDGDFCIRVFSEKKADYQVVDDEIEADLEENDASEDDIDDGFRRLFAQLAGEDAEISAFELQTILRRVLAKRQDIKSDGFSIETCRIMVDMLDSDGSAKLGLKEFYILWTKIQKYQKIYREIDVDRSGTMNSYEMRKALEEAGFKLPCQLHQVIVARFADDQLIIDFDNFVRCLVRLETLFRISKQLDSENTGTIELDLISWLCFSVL

INS1 = assay: beta cell apoptosis inhibitors, cytokine rescue, dose response, luminescence, retest (AID 449756); assay type: functional, cell-based; settings: Rattus norvegicus;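 note: cell death triggered by IL-1 beta plus TNF-alpha plus IFN-gamma mixture; protective hits raise ATP signal compared with cytokine alone wells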
[16] = HepG2 cell cytotoxicity, dose response, cytotoxicity control for Shn3 inhibitor project, CellTiter-Glo, cherry-picked (AID 624134); assay type: functional, cell-based
[17] = Shn3 3'UTR reporter inhibitors, dose response, cell-based, Clone20 osteoblasts, firefly luciferase, cherry-picked (AID 624132); assay type: functional;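 note: firefly luciferase luminescence from reporter carrying the Shn3 3'UTR in osteoblasts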
[18] = biological target: Heat shock protein HSP 90-alpha (Homo sapiens, UniProt P07900); assay type: functional, organism-based
Vero = assay: cells; assay type: functional; settings: Chlorocebus sabaeus
Paired box protein Pax-8 = Paired box protein Pax-8 (Homo sapiens, UniProt Q06710); assay: inhibitors of PAX8-driven TPO luciferase reporter, dose response, RMG-I cells, cherry-pick (AID 687027); assay type: functional, cell-based;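 note: luciferase reporter driven by Pax8 target thyroperoxidase promoter measured by SteadyGlo luminescence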
[19] = Luminescence Cell-Based Dose Retest to Confirm Inhibitors of Cancer Stem Cells. [Related pubchem assays (depositor defined):AID2717, AID2721]; assay type: functional; settings: Homo sapiens

T1 sequence (P11940 whole entry): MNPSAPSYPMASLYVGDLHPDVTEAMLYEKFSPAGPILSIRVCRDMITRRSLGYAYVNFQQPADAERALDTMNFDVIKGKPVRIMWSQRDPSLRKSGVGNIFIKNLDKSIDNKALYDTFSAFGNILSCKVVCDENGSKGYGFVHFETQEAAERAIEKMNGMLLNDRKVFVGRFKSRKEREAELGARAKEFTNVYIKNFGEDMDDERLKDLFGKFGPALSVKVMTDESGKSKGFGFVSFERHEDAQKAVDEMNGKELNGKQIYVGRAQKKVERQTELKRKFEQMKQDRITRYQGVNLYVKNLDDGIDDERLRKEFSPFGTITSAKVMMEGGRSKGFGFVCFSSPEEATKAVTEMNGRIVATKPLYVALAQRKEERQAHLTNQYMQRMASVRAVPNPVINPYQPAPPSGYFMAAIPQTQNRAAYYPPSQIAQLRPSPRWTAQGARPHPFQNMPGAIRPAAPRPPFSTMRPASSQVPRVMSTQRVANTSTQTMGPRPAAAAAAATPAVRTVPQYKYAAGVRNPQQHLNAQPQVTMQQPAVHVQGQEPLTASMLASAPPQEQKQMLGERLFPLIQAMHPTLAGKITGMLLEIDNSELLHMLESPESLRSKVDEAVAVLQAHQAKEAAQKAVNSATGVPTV
Induced myeloid leukemia cell differentiation protein Mcl-1, sequence (Q07820 whole entry): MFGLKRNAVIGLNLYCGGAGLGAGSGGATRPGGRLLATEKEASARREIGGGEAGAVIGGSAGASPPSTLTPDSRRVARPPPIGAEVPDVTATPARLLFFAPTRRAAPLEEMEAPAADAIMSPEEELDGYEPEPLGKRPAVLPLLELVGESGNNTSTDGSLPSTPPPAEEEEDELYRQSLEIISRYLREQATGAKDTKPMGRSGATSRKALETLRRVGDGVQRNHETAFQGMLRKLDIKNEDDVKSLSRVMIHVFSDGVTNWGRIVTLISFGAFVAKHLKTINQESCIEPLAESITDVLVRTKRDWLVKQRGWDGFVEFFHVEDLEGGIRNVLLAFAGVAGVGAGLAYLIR
Genome polyprotein, sequence (P29990 2492-3391 limits assumed): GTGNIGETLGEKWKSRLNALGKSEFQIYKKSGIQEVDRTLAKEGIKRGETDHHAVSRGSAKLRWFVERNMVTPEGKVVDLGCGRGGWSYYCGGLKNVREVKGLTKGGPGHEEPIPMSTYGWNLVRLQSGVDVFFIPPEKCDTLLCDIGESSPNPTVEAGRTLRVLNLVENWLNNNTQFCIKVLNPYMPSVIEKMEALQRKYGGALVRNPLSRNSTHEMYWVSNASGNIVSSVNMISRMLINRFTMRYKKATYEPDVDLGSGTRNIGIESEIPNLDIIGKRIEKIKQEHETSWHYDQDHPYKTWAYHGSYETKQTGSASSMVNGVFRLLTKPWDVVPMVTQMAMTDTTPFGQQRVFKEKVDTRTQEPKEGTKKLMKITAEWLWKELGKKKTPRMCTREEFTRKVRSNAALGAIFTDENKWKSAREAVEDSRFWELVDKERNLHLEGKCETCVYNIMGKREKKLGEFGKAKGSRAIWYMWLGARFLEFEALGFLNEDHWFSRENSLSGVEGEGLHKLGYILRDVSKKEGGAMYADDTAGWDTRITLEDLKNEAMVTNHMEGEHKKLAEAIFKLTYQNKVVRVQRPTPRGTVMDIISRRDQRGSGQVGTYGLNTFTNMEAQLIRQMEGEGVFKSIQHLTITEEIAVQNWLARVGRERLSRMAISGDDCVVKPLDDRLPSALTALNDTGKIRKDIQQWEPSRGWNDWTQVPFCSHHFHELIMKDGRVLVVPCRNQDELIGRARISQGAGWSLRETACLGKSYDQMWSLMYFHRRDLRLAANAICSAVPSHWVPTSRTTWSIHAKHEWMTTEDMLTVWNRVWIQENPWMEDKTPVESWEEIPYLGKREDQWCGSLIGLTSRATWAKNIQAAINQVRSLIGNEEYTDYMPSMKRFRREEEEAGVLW
Paired box protein Pax-8, sequence (Q06710 whole entry): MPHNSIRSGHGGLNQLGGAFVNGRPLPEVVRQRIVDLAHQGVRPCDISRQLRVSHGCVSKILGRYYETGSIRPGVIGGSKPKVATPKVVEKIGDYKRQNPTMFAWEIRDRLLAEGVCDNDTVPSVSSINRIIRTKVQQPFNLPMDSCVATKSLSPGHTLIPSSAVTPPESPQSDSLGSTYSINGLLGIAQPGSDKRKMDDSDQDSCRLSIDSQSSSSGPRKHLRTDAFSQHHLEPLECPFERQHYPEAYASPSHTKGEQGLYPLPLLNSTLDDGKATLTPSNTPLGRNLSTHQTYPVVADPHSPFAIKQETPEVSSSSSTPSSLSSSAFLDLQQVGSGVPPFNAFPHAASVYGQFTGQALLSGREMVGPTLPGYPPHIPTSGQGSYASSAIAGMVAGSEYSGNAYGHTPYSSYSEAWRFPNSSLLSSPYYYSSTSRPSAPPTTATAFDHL

Compound: COCCCNC(=O)/C(C#N)=C1\N=C(NC(=O)c2cccs2)c2ccccc21
- IC50 (H9c2): > 79 µM (inactive)

Compound: Cc1nc(-n2ncc(C#N)c2N)c2c3c(sc2n1)CCC3
- EC50 [1]: 24.8 µM (active)
- EC50 [2]: 32 µM (active)

Compound: CCOC(=O)N1CCN(C(=O)C2CCCN(Cc3nc(-c4ccc(Cl)cc4)oc3C)C2)CC1 (configuration not stated)
- IC50 [3]: > 80 µM (inactive)

Compound: COc1cccc(-c2ccc(SCC(=O)N3CCN(c4ccccc4)CC3)nn2)c1
- IC50 (H9c2): 16.1 µM (active)

Compound: CCCCOc1ccc(C(=O)NCC(=O)N(C)Cc2nc(O)c3ccccc3n2)cc1
- IC50 (H9c2): > 79 µM (inactive)

Compound: O=C(CCc1nc(O)c2ccccc2n1)Nc1ccc(F)cc1
- IC50 (H9c2): > 79 µM (inactive)

Compound: O=C(NC1CCCCC1)c1nc[nH]c1C(=O)Nc1ccc([N+](=O)[O-])cc1
- EC50 [1]: 8.84 µM (active)
- EC50 [2]: 8.87 µM (active)

Compound: CCc1nc(SCC(=O)c2ccccc2)c2ccccc2n1
- IC50 [4]: > 66 µM (inactive)
- IC50 [5]: > 66 µM (inactive)
- EC50 (cells [6]): > 350 µM (not active)
- EC50 (cells [7]): > 350 µM (not active)

Compound: CCOC(=O)c1c(C)[nH]c(C(=O)N/N=C/c2ccc(Br)cc2)c1C
- EC50 (BJ [8]): 0.327 µM (active)
- EC50 (BJ [9]): 0.733 µM (inconclusive)
- EC50 [10]: 0.387 µM (active)
- EC50 (BJ [11]): 35.1 µM (inconclusive)
- IC50 [3]: > 80 µM (inactive)

Compound: O=C1C(Cl)=C(N2CCCCC2)C(=O)N1c1ccccc1
- EC50 (Protein RecA): 3.22 µM (active)
- AC50 [12]: 8.22 µM (active)
- IC50 (Genome polyprotein): 66.9 µM (active)

Compound: C=CCC1(C#N)C(=S)N=C2CC(C)(C)CC(O)=C2C1c1ccc(Br)cc1 (configuration not stated)
- EC50 [1]: 14.6 µM (active)
- EC50 [2]: 14.9 µM (active)

Compound: COCCNC(=O)COC(=O)c1ccc(OCC(=O)Nc2ccccc2OC)c(OC)c1
- IC50 (H9c2): > 79 µM (inactive)

Compound: COC(=O)c1ccc(/C=C/C(=O)c2ccc(OC)c(OC)c2)cc1
- EC50 [1]: 8.4 µM (active)
- EC50 [2]: 7.25 µM (active)

Compound: COc1ccc(-c2ccc([C@@H]3[C@H]4CNC[C@@H]3N4C(=O)Nc3ccc(C(F)(F)F)cc3)cc2)cc1
- AC50 [13]: 15 µM (active)

Compound: COc1cc(/C=N/NC(=O)c2cccnc2)ccc1OS(=O)(=O)c1ccc(F)cc1
- IC50 (H9c2): 7.92 µM (active)

Compound: COc1cc(/C=C(/NC(C)=O)C(=O)O)cc(Cl)c1OCc1ccc(Br)cc1
- IC50 [14]: 3.47 µM (not active)

Compound: O=c1c2c3nc4ccccc4nc3n(Cc3ccccc3)c2ncn1Cc1ccco1
- IC50 [14]: 6.14 µM (not active)

Compound: Cc1ccc2nc(N3CC(=O)Nc4ccccc43)nc(-c3ccccc3)c2c1
- EC50 [1]: 11.5 µM (active)
- EC50 [2]: 10.4 µM (active)

Compound: Cc1cc(N(CCO)CCO)ccc1C(c1ccc(N(CCO)CCO)cc1C)c1ccccc1Cl
- IC50 [14]: 2.71 µM (active)

Compound: Cn1cc([N+](=O)[O-])c(C(=O)Nc2cc(Oc3cccnc3)cc([N+](=O)[O-])c2)n1
- EC50 [1]: 1.24 µM (active)
- EC50 [2]: 1.02 µM (active)
- IC50 [15]: 15.3 µM (not active)

Compound: CCC(=O)N1CC2(C1)CN(Cc1ccc(Cl)cc1)[C@@H](CO)c1[nH]c3cc(OC)ccc3c12
- AC50 [13]: 7.24 µM (active)

Compound: COc1cc(-c2cc(C(=O)Nc3c(Cl)cc(Cl)cc3Cl)c3ccccc3n2)cc(OC)c1OC
- EC50 [1]: 26 µM (active)
- EC50 [2]: 44.6 µM (active)

Compound: Cc1ccc(S(=O)(=O)NCc2ccncc2)cc1C
- AC50 (INS1): 3.06 µM (active)
- AC50 [16]: 2.43 µM (active)
- IC50 [3]: > 80 µM (inactive)
- AC50 [17]: 0.585 µM (active)

Compound: CO[C@H]1CN(C)C(=O)c2cc(NC(=O)C3CC3)ccc2OC[C@@H](C)N(Cc2cc(F)ccc2F)C[C@H]1C
- AC50 [13]: 6.09 µM (active)

Compound: CO[C@H]1CN(C)C(=O)c2cc(NC(=O)C3CC3)ccc2OC[C@H](C)N(Cc2cccc(F)c2)C[C@H]1C
- AC50 [13]: 6.05 µM (active)

Compound: O=C(O)CN1C(=O)/C(=C2\SC(=S)N(C(Cc3ccccc3)C(=O)O)C2=O)c2ccccc21 (configuration not stated)
- IC50 [4]: > 66 µM (inactive)
- IC50 [5]: > 66 µM (inactive)
- IC50 (Genome polyprotein): 42 µM (active)

Compound: CCCc1cc(=O)oc2cc(OCc3ccc(C(=O)O)cc3)ccc12
- AC50 [18]: 3.75 µM (active)

Compound: O=C(/C=C/c1ccc([N+](=O)[O-])cc1)c1cccnc1
- EC50 [1]: 5.8 µM (active)
- EC50 [2]: 4.4 µM (active)

Compound: CCCC#Cc1cnc2c(c1)C(=O)N([C@@H](C)CO)C[C@H](C)[C@H](CN(C)C(=O)Nc1cccc(F)c1)O2
- AC50 [13]: 8.83 µM (active)

Compound: C[C@]12CC[C@H]3[C@@H](CC[C@]4(O)C[C@@H](O)CC[C@]34C=O)[C@@]1(O)CC[C@@H]2C1=CC(=O)OC1 [STROPHANTHIDIN]
- CC50 (Vero): 1.22 µM (active)
- IC50 [3]: > 80 µM (inactive)
- AC50 (Paired box protein Pax-8): 2.22 µM (active)
- AC50 [19]: 0.582 µM (active)

Compound: N#C[C@H]1[C@H](c2ccc(C#CC3CCCCC3)cc2)[C@@H](CO)N1S(=O)(=O)c1ccccc1
- AC50 [13]: 3.24 µM (active)
